Values quoted from earlier work as cited in patent US8921361B2, “Triazine, pyrimidine and pyridine analogs and their use as therapeutic agents and diagnostic probes” (University of Basel, priority 2008, dated 2014).

Test system: human cancer xenografts

## FC(F)c1nc2ccccc2n1-c1nc(N2CCOCC2)nc(N2CCOCC2)n1 [ZSTK474]
mouse, in vivo, po
  toxicity in xenograft mice: without evidence of critical toxicity
Orally administered, Yaguchi et al. 2006
  antitumor activity against human cancer xenografts in mice: potent antitumor activity
